Results from patent publication US7605156B2, “Methods for the use of inhibitors of cytosolic phospholipase A2” (Wyeth, priority 2001, dated 2009).
pIC50: −log10 of the molar value.

Target: T1, cPLA2 (Homo sapiens, UniProt P47712)
T1 sequence (P47712 1-749): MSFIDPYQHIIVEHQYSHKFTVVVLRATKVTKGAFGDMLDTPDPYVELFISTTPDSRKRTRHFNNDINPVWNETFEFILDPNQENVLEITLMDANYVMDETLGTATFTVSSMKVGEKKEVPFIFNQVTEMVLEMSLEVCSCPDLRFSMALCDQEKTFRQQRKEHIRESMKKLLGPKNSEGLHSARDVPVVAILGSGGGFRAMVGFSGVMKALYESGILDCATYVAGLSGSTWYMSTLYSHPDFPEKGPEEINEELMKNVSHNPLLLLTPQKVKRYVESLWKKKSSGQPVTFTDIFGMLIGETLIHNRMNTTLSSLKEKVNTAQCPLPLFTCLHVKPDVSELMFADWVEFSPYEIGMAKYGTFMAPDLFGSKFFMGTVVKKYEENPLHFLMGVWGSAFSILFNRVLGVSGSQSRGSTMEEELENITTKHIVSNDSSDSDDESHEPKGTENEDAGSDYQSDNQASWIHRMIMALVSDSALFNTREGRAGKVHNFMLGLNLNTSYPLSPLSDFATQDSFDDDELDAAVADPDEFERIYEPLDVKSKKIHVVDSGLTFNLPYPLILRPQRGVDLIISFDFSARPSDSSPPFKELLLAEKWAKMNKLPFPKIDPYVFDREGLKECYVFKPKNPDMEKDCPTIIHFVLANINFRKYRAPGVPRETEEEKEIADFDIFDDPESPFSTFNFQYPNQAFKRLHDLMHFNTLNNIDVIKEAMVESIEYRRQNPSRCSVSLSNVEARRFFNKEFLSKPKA
Assay: Coumarine assay (hydrolysis of 7-hydroxycoumarinyl 6-heptenoate)
Assay type: biochemical
Conditions: 60 μM 7-hydroxycoumarinyl 6-heptenoate, pH 7.5; read-out: Coumarin IC50

| Compound | pIC50 |
| --- | --- |
| O=C(O)CCc1ccc(S(=O)(=O)CCc2c(CCNS(=O)(=O)c3ccccc3Cl)n(C(c3ccccc3)c3ccccc3)c3ccc(Cl)cc23)cc1 [Example 259, 3-[4-({2-[1-benzhydryl-5-chloro-2-(2-{[(2-chlorophenyl)sulfonyl]amino}ethyl)-1H-indol-3-yl]ethyl}sulfonyl)phenyl]propanoic acid] | 6.70 |
| COc1cc(C)ccc1S(=O)(=O)NCCc1c(CCCc2ccc(C(=O)O)cc2)c2cc(Cl)ccc2n1C(c1ccccc1)c1ccccc1 [Example 167, 4-{3-[1-benzhydryl-5-chloro-2-(2-{[(2-methoxy-4-methylphenyl)sulfonyl]amino}ethyl)-1H-indol-3-yl]propyl}benzoic acid] | 6.72 |
| O=C(O)c1ccc(CCCc2c(CCNS(=O)(=O)c3ccccc3F)n(C(c3ccccc3)c3ccccc3)c3ccc(Cl)cc23)cc1 [Example 222, 4-{3-[1-Benzhydryl-5-chloro-2-(2-{[(2-fluorophenyl)sulfonyl]amino}ethyl)-1H-indol-3-yl)propyl]benzoic acid] | 6.72 |
| CC(C)(C)c1ccccc1S(=O)(=O)NCCc1c(CCCc2ccc(C(=O)O)cc2)c2cc(Cl)ccc2n1C(c1ccccc1)c1ccccc1 [Example 236] | 7.07 |
| O=C(O)c1ccc(OCCc2c(CCNS(=O)(=O)CSc3ccc(F)c(Cl)c3)n(C(c3ccccc3)c3ccccc3)c3ccc(Cl)cc23)cc1 [Example 221, 4-[2-(1-benzhydryl-5-chloro-2-{2-[({[(3-chloro-4-fluorophenyl)thio]methyl}sulfonyl)amino]ethyl}-1H-indol-3-yl)ethoxy]benzoic acid] | 6.30 |
| O=C(O)c1ccc(OCCc2c(CCNS(=O)(=O)c3cccc(C(F)(F)F)c3)n(C(c3ccccc3)c3ccccc3)c3ccc(Cl)cc23)cc1 [Example 219, 4-(2-{1-benzhydryl-5-chloro-2-[2-({[3-(trifluoromethyl)phenyl]sulfonyl}amino)ethyl]-1H-indol-3-yl}ethoxy)benzoic acid] | 6.40 |
| O=C(O)c1ccc(OCCc2c(CCNS(=O)(=O)c3ccsc3)n(C(c3ccccc3)c3ccccc3)c3ccc(Cl)cc23)cc1 [Example 178, 4-[2-(1-benzhydryl-5-chloro-2-{2-[(thien-3-ylsulfonyl)amino]ethyl}-1H-indol-3-yl)ethoxy]benzoic acid] | 6.19 |
| 4-(2-{1-benzhydryl-5-chloro-2-[2-({[(5,6-dichloropyridine-2-yl)methyl]sulfonyl}amino)ethyl]-1H-indol-3-yl}ethoxy)benzoic acid [Example 76] | 6.40 |
| CC(C)Oc1ccccc1S(=O)(=O)NCCc1c(CCCc2ccc(C(=O)O)cc2)c2cc(Cl)ccc2n1C(c1ccccc1)c1ccccc1 [Example 186, 4-(3-{1-Benzhydryl-5-chloro-2-[2-(2-isopropoxy-benzenesulfonylamino)-ethyl]-1H-indol-3-yl}-propyl)benzoic acid] | 7.00 |
| O=C(O)c1ccc(OCCc2c(CCNS(=O)(=O)c3ccccc3C(F)(F)F)n(C(c3ccccc3)c3ccccc3)c3ccc(Cl)cc23)cc1 [Example 209, 4-[2-{1-Benzhydryl-5-chloro-2-[2-({[2-(trifluoromethyl)phenyl]sulfonyl}amino)ethyl]-1H-indol-3-yl}ethoxy)benzoic acid] | 6.46 |
| CC(C)Oc1ccccc1S(=O)(=O)NCCc1c(CCOc2ccc(C(=O)O)cc2)c2cc(Cl)ccc2n1C(c1ccccc1)c1ccccc1 [Example 185, 4-(2-{1-Benzhydryl-5-chloro-2-[2-(2-isopropoxy-benzenesulfonylamino)-ethyl]-1H-indol-3-yl}-ethoxy)benzoic acid] | 6.77 |
| O=C(O)c1ccc(OCCc2c(CCNS(=O)(=O)c3ccc(N4CCOCC4)nc3)n(C(c3ccccc3)c3ccccc3)c3ccc(Cl)cc23)cc1 [Example 179, 4-{2-[1-benzhydryl-5-chloro-2-(2-{[(6-morpholin-4-ylpyridin-3-yl)sulfonyl]amino}ethyl)-1H-indol-3-yl]ethoxy}benzoic acid] | 6.05 |
| O=C(O)c1ccc(CCCc2c(CCNS(=O)(=O)c3ccccc3[N+](=O)[O-])n(C(c3ccccc3)c3ccccc3)c3ccc(Cl)cc23)cc1 [Example 264, 4-{3-[1-benzhydryl-5-chloro-2-(2-{[(2-nitrophenyl)sulfonyl]amino}ethyl)-1H-indol-3-yl]propyl}benzoic acid] | 6.40 |
| CCc1cccc(CC)c1S(=O)(=O)NCCc1c(CCOc2ccc(C(=O)O)cc2)c2cc(Cl)ccc2n1C(c1ccccc1)c1ccccc1 [Example 272, 4-{2-[1-benzhydryl-5-chloro-2-(2-{[(2,6-diethylphenyl)sulfonyl]amino}ethyl)-1H-indol-3-yl]ethoxy}benzoic acid] | 7.00 |
| Cc1nc(-c2ccc(S(=O)(=O)NCCc3c(CCOc4ccc(C(=O)O)cc4)c4cc(Cl)ccc4n3C(c3ccccc3)c3ccccc3)s2)cs1 [Example 177, 4-(2-{1-benzhydryl-5-chloro-2-[2-({[5-(2-methyl-1,3-thiazol-4-yl)thien-2-yl]sulfonyl}amino)ethyl]-1H-indol-3-yl}ethoxy)benzoic acid] | 6.05 |
| N#Cc1ccccc1S(=O)(=O)NCCc1c(CCCc2ccc(C(=O)O)cc2)c2cc(Cl)ccc2n1C(c1ccccc1)c1ccccc1 [Example 155, 4-{3-[1-benzhydryl-5-chloro-2-(2-{[(2-cyanophenyl)sulfonyl]amino}ethyl)-1H-indol-3-yl]propyl}benzoic acid] | 6.35 |
| O=C(O)c1ccc(OCCc2c(CCNS(=O)(=O)c3cc(Cl)c(F)cc3F)n(C(c3ccccc3)c3ccccc3)c3ccc(Cl)cc23)cc1 [Example 169, 4-{2-[1-Benzhydryl-5-chloro-2-(2-{[(5-chloro-2,4-difluorophenyl)sulfonyl]amino}ethyl)-1H-indol-3-yl]ethoxy}benzoic acid] | 6.34 |
| O=C(O)c1ccc(CCCc2c(CCNS(=O)(=O)c3c(F)cc(F)cc3F)n(C(c3ccccc3)c3ccccc3)c3ccc(Cl)cc23)cc1 [Example 199, 4-(3-{1-Benzhydryl-5-chloro-2-[2-(2,4,6-trifluoro-benzenesulfonylamino)-ethyl]-1H-indol-3-yl}-propyl)-benzoic acid] | 6.35 |
| O=C(O)c1ccc(OCCc2c(CCNS(=O)(=O)CSc3ccc(Cl)c(Cl)c3)n(C(c3ccccc3)c3ccccc3)c3ccc(Cl)cc23)cc1 [Example 220, 4-[2-(1-benzhydryl-5-chloro-2-{2-[({[(3,4-dichlorophenyl)thio]methyl}sulfonyl)amino]ethyl}-1H-indol-3-yl)ethoxy]benzoic acid] | 6.40 |
| CCC1CCCCN1CCS(=O)(=O)NCCc1c(CCOc2ccc(C(=O)O)cc2)c2cc(Cl)ccc2n1C(c1ccccc1)c1ccccc1 (stereo not drawn) [Example 249, 4-(2-{1-benzhydryl-5-chloro-2-[2-({[2-(2-ethylpiperidin-1-yl)ethyl]sulfonyl}amino)ethyl]-1H-indol-3-yl}ethoxy)benzoic acid] | 6.17 |
| O=C(O)c1ccc(CCCc2c(CCNS(=O)(=O)c3ccccc3Br)n(C(c3ccccc3)c3ccccc3)c3ccc(Cl)cc23)cc1 [Example 158, 4-{3-[1-benzhydryl-2-(2-{[(2-bromophenyl)sulfonyl]amino}ethyl)-5-chloro-1H-indol-3-yl]propyl}benzoic acid] | 6.70 |
| O=C(O)c1ccc(OCCc2c(CCNS(=O)(=O)c3c(F)cc(F)cc3F)n(C(c3ccccc3)c3ccccc3)c3ccc(Cl)cc23)cc1 [Example 196, 4-(2-{1-Benzhydryl-5-chloro-2-[2-(2,4,6-trifluoro-benzenesulfonylamino)-ethyl]-1H-indol-3-yl}-ethoxy)-benzoic acid] | 6.25 |
| NC(=O)C1CCCN1CCS(=O)(=O)NCCc1c(CCOc2ccc(C(=O)O)cc2)c2cc(Cl)ccc2n1C(c1ccccc1)c1ccccc1 (stereo not drawn) [Example 247, 4-[2-(1-Benzhydryl-2-{2-[2-(2-carbamoyl-pyrrolidin-1-yl)-ethanesulfonylamino]-ethyl}-5-chloro-1H-indol-3-yl)-ethoxy]-benzoic acid] | 5.92 |
| O=C(O)c1ccc(CCCc2c(CCNS(=O)(=O)c3cccc(-c4ccccc4)c3)n(C(c3ccccc3)c3ccccc3)c3ccc(Cl)cc23)cc1 [Example 206, 4-[3-(1-benzhydryl-2-{-2-[-(1,1′-biphenyl-3-ylsulfonyl)amino]ethyl}-5-chloro-1H-indol-3-yl)propyl]benzoic acid] | 6.30 |
